Test results: ChEMBL document CHEMBL1201862, “PubChem BioAssay data set” (2004)
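Grown in 96-well plates, cells were treated for 48 hours with each compound at five concentrations. Insufficient inhibition: endpoint recorded as highest concentration tested. GI50: concentration for 50% inhibition of growth.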 The source made the active and inactive calls. Cut-off read from the data, not from the text of the source: active = GI50 up to about 1.1 µM and inactive = higher.

Assays:
Experiment in all cases: inhibition of tumour cell growth, NCI panel, 48 h
KM12 = system: KM12
ACHN = system: ACHN
HOP-62 = system: HOP-62
HT-29 = system: HT-29
SF-295 = system: SF-295
SNB-19 = system: SNB-19
IGROV-1 = system: IGROV-1
RPMI-8226 = system: RPMI-8226
HCT-116 = system: HCT-116
NCI-H23 = system: NCI-H23
UACC-62 = system: UACC-62
LOX IMVI = system: LOX IMVI
UO-31 = system: UO-31
HL-60 = system: HL-60
OVCAR-4 = system: OVCAR-4
SK-MEL-2 = system: SK-MEL-2

Measured: GI50

CCN(CC)CCCC(C)Nc1ccnc2ccc3nn(C)nc3c12 (stereo not given)
inactive: KM12 42.3 µM | ACHN 65.3 µM | HOP-62 76.6 µM | HT-29 26.5 µM | SF-295 44.7 µM | SNB-19 > 100 µM | IGROV-1 > 100 µM | RPMI-8226 53 µM | HCT-116 26.2 µM | NCI-H23 > 100 µM | UACC-62 > 100 µM | LOX IMVI 17.9 µM | UO-31 40 µM | HL-60 30.1 µM

CCOC(=O)COS(=O)(=O)C(F)(F)F
inactive: OVCAR-4 > 100 µM | KM12 > 100 µM | ACHN > 100 µM | HOP-62 > 100 µM | HT-29 > 100 µM | SF-295 > 100 µM | SNB-19 > 100 µM | IGROV-1 > 100 µM | RPMI-8226 23.9 µM | SK-MEL-2 > 100 µM | HCT-116 34.5 µM | NCI-H23 > 100 µM | UACC-62 > 100 µM | LOX IMVI 18.8 µM | UO-31 > 100 µM | HL-60 > 100 µM

OC12c3ccccc3C1CCCCC2N1CCCC1 (stereo not given)
inactive: OVCAR-4 > 100 µM | KM12 > 100 µM | ACHN > 100 µM | HOP-62 > 100 µM | HT-29 > 100 µM | SF-295 > 100 µM | SNB-19 > 100 µM | RPMI-8226 > 100 µM | SK-MEL-2 > 100 µM | HCT-116 > 100 µM | NCI-H23 > 100 µM | UACC-62 > 100 µM | LOX IMVI > 100 µM | UO-31 > 100 µM | HL-60 > 100 µM

CCOc1ccc(NC(=O)C2=C(C)NC(C)=C(C(=O)Nc3ccc(OCC)cc3)C2c2ccc(O)c(OC)c2)cc1
inactive: OVCAR-4 36.9 µM | KM12 47.9 µM | ACHN 55.1 µM | HOP-62 29.5 µM | HT-29 > 100 µM | SF-295 54.7 µM | SNB-19 > 100 µM | IGROV-1 > 100 µM | RPMI-8226 28.6 µM | SK-MEL-2 64.6 µM | NCI-H23 > 100 µM | LOX IMVI > 100 µM | UO-31 52.4 µM | HL-60 42.7 µM

O=C(/C=C/c1ccc(Cl)c(Cl)c1)c1ccc(F)cc1
inactive: OVCAR-4 19.2 µM | KM12 8.65 µM | ACHN 17.8 µM | HOP-62 > 100 µM | HT-29 13.3 µM | SF-295 20.2 µM | SNB-19 16.8 µM | IGROV-1 20.3 µM | RPMI-8226 3.3 µM | HCT-116 7.67 µM | NCI-H23 29.8 µM | UACC-62 14.7 µM | UO-31 > 100 µM | HL-60 11.9 µM

CC(=O)OC1C(COC(N)=O)OC(n2c(-c3ccc(C)cc3)cc(-c3ccccc3)c(C#N)c2=O)C(OC(C)=O)C1OC(C)=O (stereo not given)
inactive: OVCAR-4 > 100 µM | KM12 > 100 µM | ACHN > 100 µM | HOP-62 > 100 µM | HT-29 > 100 µM | SF-295 > 100 µM | SNB-19 > 100 µM | IGROV-1 > 100 µM | RPMI-8226 > 100 µM | SK-MEL-2 > 100 µM | HCT-116 > 100 µM | NCI-H23 > 100 µM | UACC-62 > 100 µM | LOX IMVI > 100 µM | UO-31 71.9 µM

COCOCCC#CCO
inactive: KM12 > 100 µM | ACHN > 100 µM | HT-29 > 100 µM | SF-295 > 100 µM | SNB-19 > 100 µM | IGROV-1 > 100 µM | RPMI-8226 > 100 µM | SK-MEL-2 > 100 µM | HCT-116 88.9 µM | NCI-H23 32.4 µM | UACC-62 > 100 µM | LOX IMVI > 100 µM | UO-31 > 100 µM | HL-60 > 100 µM

O=C1OCCC1(Cc1ccc(Cl)cc1)Cc1ccc(Cl)cc1
inactive: OVCAR-4 36.2 µM | KM12 > 100 µM | ACHN > 100 µM | HOP-62 31.3 µM | HT-29 > 100 µM | SF-295 34 µM | SNB-19 30 µM | IGROV-1 > 100 µM | RPMI-8226 > 100 µM | SK-MEL-2 71.8 µM | HCT-116 > 100 µM | NCI-H23 53.2 µM | UACC-62 > 100 µM | UO-31 54.7 µM | HL-60 > 100 µM

COC(=O)/C(=C\c1ccc(N(CCC#N)CCC#N)cc1)NC(=O)c1cc([N+](=O)[O-])ccc1Cl
inactive: OVCAR-4 > 100 µM | KM12 > 100 µM | ACHN > 100 µM | HOP-62 > 100 µM | HT-29 > 100 µM | SF-295 > 100 µM | SNB-19 > 100 µM | IGROV-1 > 100 µM | RPMI-8226 > 100 µM | SK-MEL-2 > 100 µM | HCT-116 > 100 µM | NCI-H23 > 100 µM | UACC-62 > 100 µM | LOX IMVI > 100 µM | UO-31 > 100 µM

Cc1nc2ccccc2c(=O)n1/N=C(\N=N\c1ccc(Cl)cc1)c1ccc(N(C)C)cc1
inactive: ACHN > 100 µM | HOP-62 66.4 µM | HT-29 > 100 µM | SF-295 > 100 µM | SNB-19 48 µM | IGROV-1 > 100 µM | HCT-116 46.1 µM | NCI-H23 72.4 µM | UACC-62 70.3 µM | LOX IMVI > 100 µM | UO-31 21.8 µM

Nc1c(C(=O)Nc2ccccc2)[n+]([O-])c2ccccc2[n+]1[O-]
inactive: OVCAR-4 17.6 µM | KM12 14.2 µM | ACHN 16.3 µM | HOP-62 19.1 µM | HT-29 16.6 µM | SF-295 20.9 µM | SNB-19 15.5 µM | IGROV-1 18.4 µM | RPMI-8226 20.6 µM | SK-MEL-2 15.8 µM | NCI-H23 12.5 µM | UACC-62 10.5 µM | LOX IMVI 12.3 µM | UO-31 21.2 µM | HL-60 17.9 µM

O=C(Cn1ccnc1[N+](=O)[O-])NCc1ccc(F)cc1
inactive: OVCAR-4 > 100 µM | KM12 > 100 µM | ACHN > 100 µM | HOP-62 > 100 µM | HT-29 > 100 µM | SF-295 > 100 µM | SNB-19 > 100 µM | IGROV-1 > 100 µM | RPMI-8226 > 100 µM | SK-MEL-2 > 100 µM | NCI-H23 > 100 µM | UACC-62 > 100 µM | LOX IMVI > 100 µM | UO-31 > 100 µM | HL-60 > 100 µM

Cc1cc(N(CCC#N)CCC#N)ccc1/C=C(/NC(=O)/C=C/c1ccccc1)C(N)=O
inactive: KM12 > 100 µM | ACHN > 100 µM | HOP-62 > 100 µM | HT-29 > 100 µM | SF-295 > 100 µM | SNB-19 > 100 µM | IGROV-1 > 100 µM | RPMI-8226 > 100 µM | SK-MEL-2 > 100 µM | HCT-116 > 100 µM | NCI-H23 > 100 µM | UACC-62 > 100 µM | LOX IMVI 97.5 µM | UO-31 > 100 µM | HL-60 > 100 µM

CC1=NN(C(=O)Nc2ccc(Cl)cc2)C(=O)C2CCC(=O)N12 (stereo not given)
inactive: OVCAR-4 72.8 µM | KM12 28.9 µM | ACHN 5.73 µM | HOP-62 > 100 µM | SF-295 48.3 µM | SNB-19 > 100 µM | IGROV-1 > 100 µM | RPMI-8226 93.3 µM | SK-MEL-2 > 100 µM | HCT-116 > 100 µM | NCI-H23 74.1 µM | UACC-62 2.2 µM | LOX IMVI 4.13 µM | UO-31 61.2 µM | HL-60 61.7 µM

C=CC(=O)Nc1ccccc1CC(c1c[nH]c2ccccc12)c1c[nH]c2ccccc12
inactive: KM12 19.7 µM | HOP-62 19.6 µM | HT-29 18.3 µM | SF-295 22.1 µM | SNB-19 17.9 µM | IGROV-1 18.2 µM | RPMI-8226 17.5 µM | SK-MEL-2 17.7 µM | NCI-H23 20 µM | UACC-62 16.6 µM | LOX IMVI 18.5 µM | UO-31 15.9 µM

CC(=O)OC1C2CCC1C1C2C2(Cl)C(Cl)=C(Cl)C1(Cl)C2(Cl)Cl (stereo not given)
inactive: OVCAR-4 19.7 µM | KM12 13 µM | ACHN 12.2 µM | HOP-62 15.5 µM | HT-29 12.3 µM | SF-295 11.3 µM | SNB-19 15.1 µM | IGROV-1 16.4 µM | RPMI-8226 6.05 µM | SK-MEL-2 10.2 µM | HCT-116 11.2 µM | NCI-H23 12.2 µM | UACC-62 12.4 µM | LOX IMVI 15.2 µM | UO-31 12.5 µM

Cc1cc2c(cc1C)[n+]([O-])c(C(=O)CC(=O)C(=O)Nc1c(C(C)C)cccc1C(C)C)c(C)[n+]2[O-]
inactive: OVCAR-4 > 100 µM | KM12 > 100 µM | ACHN > 100 µM | HOP-62 > 100 µM | HT-29 > 100 µM | SF-295 > 100 µM | SNB-19 > 100 µM | IGROV-1 > 100 µM | RPMI-8226 > 100 µM | SK-MEL-2 > 100 µM | HCT-116 > 100 µM | NCI-H23 > 100 µM | UACC-62 > 100 µM | LOX IMVI > 100 µM | UO-31 > 100 µM

Clc1ccc(CCN2CCOCC2)c(Cl)c1
inactive: OVCAR-4 > 100 µM | KM12 > 100 µM | ACHN > 100 µM | HOP-62 > 100 µM | HT-29 > 100 µM | SF-295 > 100 µM | SNB-19 > 100 µM | IGROV-1 > 100 µM | RPMI-8226 > 100 µM | SK-MEL-2 > 100 µM | HCT-116 > 100 µM | NCI-H23 > 100 µM | UACC-62 92.5 µM | UO-31 > 100 µM | HL-60 > 100 µM

CN(C)CCCNC(=O)c1cccc2nc3ccccc3nc12
inactive: OVCAR-4 14.1 µM | KM12 13.5 µM | ACHN 7.43 µM | HOP-62 19.9 µM | HT-29 6.75 µM | SF-295 19.5 µM | SNB-19 19.8 µM | IGROV-1 34.2 µM | RPMI-8226 20.1 µM | SK-MEL-2 14.8 µM | HCT-116 4.83 µM | NCI-H23 14.8 µM | UACC-62 24.1 µM | LOX IMVI 6.52 µM | UO-31 24.5 µM
